Assay results reported in ChEMBL document CHEMBL4184286, “Discovery of morpholine-based aryl sulfonamides as Nav1.7 inhibitors” (Bioorg Med Chem Lett, 2018).

Experiments:
[1] = biological target: Sodium channel protein type 9 subunit alpha (Homo sapiens, UniProt Q15858); assay: Antagonist activity at recombinant human Nav1.7 expressed in HEK293 cells assessed as reduction in channel current at -60 mV holding potential after 600 secs by barracuda automated electrophysiology method; assay type: cell-based
Sodium channel protein type 9 subunit alpha, sequence (Q15858 whole entry): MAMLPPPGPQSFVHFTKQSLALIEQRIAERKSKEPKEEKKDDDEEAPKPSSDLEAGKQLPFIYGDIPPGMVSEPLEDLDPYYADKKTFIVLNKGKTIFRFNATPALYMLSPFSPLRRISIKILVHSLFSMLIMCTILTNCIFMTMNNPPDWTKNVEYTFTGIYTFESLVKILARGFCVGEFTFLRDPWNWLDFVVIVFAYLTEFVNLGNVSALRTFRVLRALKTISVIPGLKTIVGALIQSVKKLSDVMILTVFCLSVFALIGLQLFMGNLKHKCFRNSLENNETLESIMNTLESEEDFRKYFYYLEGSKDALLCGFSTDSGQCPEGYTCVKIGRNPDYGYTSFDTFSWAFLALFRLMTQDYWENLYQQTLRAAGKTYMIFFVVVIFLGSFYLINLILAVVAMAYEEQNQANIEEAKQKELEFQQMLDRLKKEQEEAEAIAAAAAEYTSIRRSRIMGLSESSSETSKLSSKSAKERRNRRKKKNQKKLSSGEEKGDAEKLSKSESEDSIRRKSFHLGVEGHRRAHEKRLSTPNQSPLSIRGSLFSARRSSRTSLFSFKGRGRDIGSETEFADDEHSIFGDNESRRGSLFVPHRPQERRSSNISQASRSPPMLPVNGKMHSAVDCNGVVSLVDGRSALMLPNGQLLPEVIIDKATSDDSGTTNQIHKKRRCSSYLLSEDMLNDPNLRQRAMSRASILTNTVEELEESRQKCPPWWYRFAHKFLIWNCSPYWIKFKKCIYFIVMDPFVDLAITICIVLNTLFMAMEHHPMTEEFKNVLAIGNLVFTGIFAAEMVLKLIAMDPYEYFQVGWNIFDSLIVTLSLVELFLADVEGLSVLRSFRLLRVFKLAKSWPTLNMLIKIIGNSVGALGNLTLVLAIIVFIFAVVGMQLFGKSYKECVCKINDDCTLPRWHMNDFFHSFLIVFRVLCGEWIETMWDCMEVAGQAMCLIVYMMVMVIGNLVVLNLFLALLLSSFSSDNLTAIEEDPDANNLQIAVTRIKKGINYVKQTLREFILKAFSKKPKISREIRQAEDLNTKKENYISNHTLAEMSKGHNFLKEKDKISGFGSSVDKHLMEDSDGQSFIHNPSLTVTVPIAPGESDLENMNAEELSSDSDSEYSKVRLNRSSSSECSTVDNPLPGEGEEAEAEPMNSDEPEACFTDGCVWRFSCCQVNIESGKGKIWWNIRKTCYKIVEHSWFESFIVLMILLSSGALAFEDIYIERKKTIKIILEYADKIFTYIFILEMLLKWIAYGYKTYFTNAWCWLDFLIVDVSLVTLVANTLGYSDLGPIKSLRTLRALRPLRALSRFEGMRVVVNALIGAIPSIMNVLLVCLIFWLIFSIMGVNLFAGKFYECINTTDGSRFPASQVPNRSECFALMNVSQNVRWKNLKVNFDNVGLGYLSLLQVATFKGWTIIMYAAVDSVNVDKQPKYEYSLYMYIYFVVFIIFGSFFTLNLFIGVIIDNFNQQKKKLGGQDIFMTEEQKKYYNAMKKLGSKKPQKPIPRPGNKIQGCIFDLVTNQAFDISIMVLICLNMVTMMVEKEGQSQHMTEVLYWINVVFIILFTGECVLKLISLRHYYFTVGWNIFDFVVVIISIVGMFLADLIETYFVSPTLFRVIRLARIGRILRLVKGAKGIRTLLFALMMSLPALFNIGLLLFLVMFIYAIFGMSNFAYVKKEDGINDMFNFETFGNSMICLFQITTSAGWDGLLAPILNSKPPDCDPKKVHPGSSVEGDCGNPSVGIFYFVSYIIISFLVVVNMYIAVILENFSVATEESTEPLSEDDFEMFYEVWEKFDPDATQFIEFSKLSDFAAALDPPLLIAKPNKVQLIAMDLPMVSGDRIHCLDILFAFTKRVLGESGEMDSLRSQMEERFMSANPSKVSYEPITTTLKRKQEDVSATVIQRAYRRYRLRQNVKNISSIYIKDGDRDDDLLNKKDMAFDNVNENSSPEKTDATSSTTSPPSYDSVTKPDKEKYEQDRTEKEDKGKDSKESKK

[2] = biological target: Sodium channel protein type 5 subunit alpha (Homo sapiens, UniProt Q14524); assay: Antagonist activity at recombinant human Nav1.5 expressed in HEK293 cells assessed as reduction in channel current at -50 mV holding potential after 600 secs by barracuda automated electrophysiology method; assay type: ADME, cell-based
Sodium channel protein type 5 subunit alpha, sequence (Q14524 whole entry): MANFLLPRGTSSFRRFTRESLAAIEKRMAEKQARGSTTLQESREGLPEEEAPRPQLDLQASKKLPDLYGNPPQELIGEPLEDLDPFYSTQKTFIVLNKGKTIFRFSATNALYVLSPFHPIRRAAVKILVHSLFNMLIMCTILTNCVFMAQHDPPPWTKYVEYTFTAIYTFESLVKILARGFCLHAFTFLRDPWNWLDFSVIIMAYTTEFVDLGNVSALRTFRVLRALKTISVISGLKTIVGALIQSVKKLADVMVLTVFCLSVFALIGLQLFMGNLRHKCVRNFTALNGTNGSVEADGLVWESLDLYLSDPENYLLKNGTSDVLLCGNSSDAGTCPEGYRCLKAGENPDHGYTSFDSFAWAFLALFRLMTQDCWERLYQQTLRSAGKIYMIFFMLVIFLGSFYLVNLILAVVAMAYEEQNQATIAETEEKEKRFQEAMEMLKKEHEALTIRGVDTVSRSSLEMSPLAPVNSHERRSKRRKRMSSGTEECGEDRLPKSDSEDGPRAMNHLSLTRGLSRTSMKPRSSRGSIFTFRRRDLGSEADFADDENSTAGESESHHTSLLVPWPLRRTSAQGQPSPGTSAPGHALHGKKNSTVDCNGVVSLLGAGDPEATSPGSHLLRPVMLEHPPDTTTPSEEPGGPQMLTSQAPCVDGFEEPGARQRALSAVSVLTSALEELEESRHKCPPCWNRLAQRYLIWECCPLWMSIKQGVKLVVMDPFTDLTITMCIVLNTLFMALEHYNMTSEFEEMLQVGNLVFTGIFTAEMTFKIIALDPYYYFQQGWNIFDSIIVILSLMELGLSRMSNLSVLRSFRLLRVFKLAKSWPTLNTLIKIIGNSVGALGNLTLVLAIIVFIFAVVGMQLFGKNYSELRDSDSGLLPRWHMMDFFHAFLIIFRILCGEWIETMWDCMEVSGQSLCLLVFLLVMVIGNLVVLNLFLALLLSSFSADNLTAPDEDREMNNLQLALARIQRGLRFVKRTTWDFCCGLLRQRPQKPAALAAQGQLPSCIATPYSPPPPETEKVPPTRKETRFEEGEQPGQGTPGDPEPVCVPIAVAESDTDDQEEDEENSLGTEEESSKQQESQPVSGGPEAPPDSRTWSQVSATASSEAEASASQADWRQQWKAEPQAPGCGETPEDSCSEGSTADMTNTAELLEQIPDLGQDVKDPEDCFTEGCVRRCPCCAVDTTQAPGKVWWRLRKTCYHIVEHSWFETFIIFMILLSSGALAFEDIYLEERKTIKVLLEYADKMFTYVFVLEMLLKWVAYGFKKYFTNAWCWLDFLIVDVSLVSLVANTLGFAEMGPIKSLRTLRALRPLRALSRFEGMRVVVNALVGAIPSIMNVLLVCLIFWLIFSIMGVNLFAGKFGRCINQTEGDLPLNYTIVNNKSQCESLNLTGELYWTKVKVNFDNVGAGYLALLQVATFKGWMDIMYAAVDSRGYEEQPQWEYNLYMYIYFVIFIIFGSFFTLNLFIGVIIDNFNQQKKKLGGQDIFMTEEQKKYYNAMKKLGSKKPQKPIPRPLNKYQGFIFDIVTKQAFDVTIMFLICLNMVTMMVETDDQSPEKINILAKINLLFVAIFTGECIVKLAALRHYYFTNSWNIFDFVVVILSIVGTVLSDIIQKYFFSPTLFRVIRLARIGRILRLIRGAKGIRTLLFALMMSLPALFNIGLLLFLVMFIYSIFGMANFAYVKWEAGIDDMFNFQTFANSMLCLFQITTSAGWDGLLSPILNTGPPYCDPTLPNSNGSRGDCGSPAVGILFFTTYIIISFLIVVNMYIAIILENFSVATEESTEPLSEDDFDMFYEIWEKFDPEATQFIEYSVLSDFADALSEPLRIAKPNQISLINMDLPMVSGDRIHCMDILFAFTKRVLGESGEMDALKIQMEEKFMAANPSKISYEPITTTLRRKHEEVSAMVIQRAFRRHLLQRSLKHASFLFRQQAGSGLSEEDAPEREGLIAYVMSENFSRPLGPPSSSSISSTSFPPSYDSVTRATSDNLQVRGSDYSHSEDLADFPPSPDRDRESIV

Row | SMILES | IC50 [1] | IC50 ([2]; hek293) | IC50 [2]
1 | N#Cc1ccc(C2NCCOC2Oc2cc(F)c(S(=O)(=O)Nc3ncns3)cc2F)cc1 (single isomer, unassigned; isomer B) | 4 µM | > 30 µM | 
2 | O=S(=O)(Nc1ncns1)c1cc(F)c(OC2OCCNC2c2ccc3c(c2)OCO3)cc1F (single isomer, unassigned; isomer B) | 1.1 µM |  | > 30 µM
3 | O=S(=O)(Nc1ncns1)c1cc(F)c(CO[C@H]2OCCN[C@@H]2c2ccc(F)cc2)cc1F | 2.5 µM |  | 
4 | O=S(=O)(Nc1ncns1)c1cc(F)c(OC[C@H]2NCCO[C@@H]2c2ccc(Cl)cc2)cc1F | 1.5 µM |  | 
5 | O=S(=O)(Nc1ncns1)c1cc(F)c(OC[C@H]2OCCN[C@@H]2c2ccc(Cl)cc2)cc1F | 29 µM |  | 
6 | O=S(=O)(Nc1ncns1)c1cc(F)c(OC2OCCNC2c2ccc(C(F)(F)F)cc2)cc1F (single isomer, unassigned; isomer B) | 9.7 µM | > 30 µM | 
7 | COc1ccc(C2NCCOC2Oc2cc(F)c(S(=O)(=O)Nc3ncns3)cc2F)cc1 (single isomer, unassigned; isomer B) | 1.8 µM | > 30 µM | 
8 | CC(C)[C@@H]1COC(Oc2cc(F)c(S(=O)(=O)Nc3ncns3)cc2F)C(c2cc(Cl)cc(Cl)c2)N1 (single isomer, unassigned; isomer B) | 25 µM |  | 
9 | O=S(=O)(Nc1ncns1)c1cc(F)c(OC2OCCNC2c2ccc3ncccc3c2)cc1F (single isomer, unassigned; isomer B) | 1.6 µM |  | > 30 µM
10 | N#Cc1cccc(C2NCCOC2Oc2cc(F)c(S(=O)(=O)Nc3ncns3)cc2F)c1 (single isomer, unassigned; isomer A) | 0.92 µM |  | > 30 µM
11 | CC1(C)CN[C@@H](c2cc(Cl)cc(Cl)c2)[C@H](Oc2cc(F)c(S(=O)(=O)Nc3ncns3)cc2F)O1 | 3.3 µM |  | 4.4 µM
12 | CC(C)C[C@@H]1COC(Oc2cc(F)c(S(=O)(=O)Nc3ncns3)cc2F)C(c2cc(Cl)cc(Cl)c2)N1 (single isomer, unassigned; isomer A) | 1.7 µM |  | 
13 | CC(C)C[C@H]1COC(Oc2cc(F)c(S(=O)(=O)Nc3ncns3)cc2F)C(c2cc(Cl)cc(Cl)c2)N1 (stereo in doubt; 61) | 6.5 µM |  | 
14 | Cn1nccc1C1NCCOC1Oc1cc(F)c(S(=O)(=O)Nc2ncns2)cc1F (stereo in doubt; 55) | 1.8 µM |  | > 30 µM
15 | CC(C)[C@H]1COC(Oc2cc(F)c(S(=O)(=O)Nc3ncns3)cc2F)C(c2cc(Cl)cc(Cl)c2)N1 (single isomer, unassigned; isomer B) | 1.1 µM |  | 
16 | COc1ccccc1C1NCCOC1Oc1cc(F)c(S(=O)(=O)Nc2ncns2)cc1F (single isomer, unassigned; isomer B) | 4.6 µM | > 30 µM | 

Row | SMILES | IC50 [1] | IC50 ([2]; hek293) | IC50 [2]
17 | Cn1nccc1C1NCCOC1Oc1cc(F)c(S(=O)(=O)Nc2ncns2)cc1F (single isomer, unassigned; isomer A) | 5.8 µM | > 30 µM | 
18 | O=S(=O)(Nc1ncns1)c1cc(F)c(OC2OCCNC2c2cccc3nccnc23)cc1F (single isomer, unassigned; isomer A) | 6.6 µM | > 30 µM | 
19 | CC(C)C[C@H]1COC(Oc2cc(F)c(S(=O)(=O)Nc3ncns3)cc2F)C(c2cc(Cl)cc(Cl)c2)N1 (single isomer, unassigned; isomer A) | 1.1 µM |  | 
20 | O=S(=O)(Nc1ncns1)c1cc(F)c(OC2OCCNC2c2ccc(Cl)nc2)cc1F (single isomer, unassigned; isomer A) | 17 µM | > 30 µM | 
21 | O=S(=O)(Nc1ncns1)c1cc(F)c(OC2OCCNC2c2ccc(Cl)nc2)cc1F (single isomer, unassigned; isomer B) | 15 µM |  | > 30 µM
22 | O=S(=O)(Nc1ncns1)c1cc(F)c(OC2OCCNC2c2ccc3cnccc3c2)cc1F (single isomer, unassigned; isomer A) | 1.4 µM | > 30 µM | 
23 | COc1cccc(C2NCCOC2Oc2cc(F)c(S(=O)(=O)Nc3ncns3)cc2F)c1 (single isomer, unassigned; isomer B) | 1.6 µM | > 30 µM | 
24 | N#Cc1cccc(C2NCCOC2Oc2cc(F)c(S(=O)(=O)Nc3ncns3)cc2F)c1 (single isomer, unassigned; isomer B) | 11 µM | > 30 µM | 
25 | O=S(=O)(Nc1ncns1)c1cc(F)c(OC2OCCNC2c2ccc(Cl)c(Cl)c2)cc1F (single isomer, unassigned; isomer A) | 1.2 µM |  | 1 µM
26 | CC(C)[C@@H]1COC(Oc2cc(F)c(S(=O)(=O)Nc3ncns3)cc2F)C(c2cc(Cl)cc(Cl)c2)N1 (stereo in doubt; 66) | 14 µM |  | 
27 | O=S(=O)(Nc1ncns1)c1cc(F)c(OC2OCCNC2c2ccc3c(c2)OCO3)cc1F (single isomer, unassigned; isomer A) | 1.5 µM | > 30 µM | 
28 | CC(C)C[C@@H]1COC(Oc2cc(F)c(S(=O)(=O)Nc3ncns3)cc2F)C(c2cc(Cl)cc(Cl)c2)N1 (single isomer, unassigned; isomer B) | > 30 µM |  | 
29 | O=S(=O)(Nc1ncns1)c1cc(F)c(OC2OCCNC2c2ccc3ncccc3c2)cc1F (single isomer, unassigned; isomer A) | 2.8 µM | > 30 µM | 
30 | Cn1nc(C(F)(F)F)cc1C1NCCOC1Oc1cc(F)c(S(=O)(=O)Nc2ncns2)cc1F (single isomer, unassigned; isomer B) | 4.5 µM |  | > 30 µM
31 | O=S(=O)(Nc1ncns1)c1cc(F)c(OC2OCCNC2c2cccc3nccnc23)cc1F (single isomer, unassigned; isomer B) | 6.3 µM |  | > 30 µM
32 | N#Cc1ccc(C2NCCOC2Oc2cc(F)c(S(=O)(=O)Nc3ncns3)cc2F)cc1 (single isomer, unassigned; isomer A) | 1.5 µM |  | > 30 µM

Stronger by IC50 [1], values ahead:

Row | IC50 [1] | SMILES | IC50 ([2]; hek293) | IC50 [2]
33 | 0.69 µM | O=S(=O)(Nc1ncns1)c1cc(F)c(OC2OCCNC2c2ccc(F)cc2)cc1F (single isomer, unassigned; isomer A) |  | > 30 µM
34 | 0.45 µM | CC1(C)CNC(c2cc(Cl)cc(Cl)c2)C(Oc2cc(F)c(S(=O)(=O)Nc3ncns3)cc2F)O1 (single isomer, unassigned; isomer B) |  | 
35 | 0.14 µM | CC1(C)CNC(c2cc(Cl)cc(Cl)c2)C(Oc2cc(F)c(S(=O)(=O)Nc3ncns3)cc2F)O1 (single isomer, unassigned; isomer A) |  | 
36 | 0.84 µM | O=S(=O)(Nc1ncns1)c1cc(F)c(OC2OCCNC2c2cc(Cl)cc(Cl)c2)cc1F (single isomer, unassigned; isomer A) | 5.6 µM | 
37 | 0.07 µM | CN(C)c1noc2ccc(C3NCCOC3Oc3cc(F)c(S(=O)(=O)Nc4ncns4)cc3F)cc12 (single isomer, unassigned; isomer A) |  | 
38 | 0.14 µM | CN(C)c1noc2ccc(C3NCCOC3Oc3cc(F)c(S(=O)(=O)Nc4ncns4)cc3F)cc12 (single isomer, unassigned; isomer B) |  | 5 µM
39 | 0.35 µM | CC1(C)COC(Oc2cc(F)c(S(=O)(=O)Nc3ncns3)cc2F)C(c2ccc(Cl)cc2)N1 (single isomer, unassigned; isomer A) |  | 
40 | 0.26 µM | O=S(=O)(Nc1ncns1)c1cc(F)c(OC2OCCNC2c2ccc(Cl)cc2Cl)cc1F (single isomer, unassigned; isomer A) |  | 1.7 µM
41 | 0.58 µM | CC1(C)COC(Oc2cc(F)c(S(=O)(=O)Nc3ncns3)cc2F)C(c2ccc(Cl)cc2)N1 (single isomer, unassigned; isomer B) |  | 
42 | 0.17 µM | O=S(=O)(Nc1ncns1)c1cc(F)c(OC2OCCNC2c2ccc(Cl)c(Cl)c2)cc1F (single isomer, unassigned; isomer B) |  | 3 µM
43 | 0.39 µM | COc1cccc(C2NCCOC2Oc2cc(F)c(S(=O)(=O)Nc3ncns3)cc2F)c1 (single isomer, unassigned; isomer A) |  | > 30 µM
44 | 0.51 µM | O=S(=O)(Nc1ncns1)c1cc(F)c(OC2OCCNC2c2ccc3cnccc3c2)cc1F (single isomer, unassigned; isomer B) |  | > 30 µM
45 | 0.31 µM | O=S(=O)(Nc1ncns1)c1cc(F)c(OC2OCCNC2c2cccc(C(F)(F)F)c2)cc1F (single isomer, unassigned; isomer A) |  | 0.58 µM
46 | 0.028 µM | O=S(=O)(Nc1ncns1)c1cc(F)c(OC2OCCNC2c2cc(Cl)cc(Cl)c2)cc1F (single isomer, unassigned; isomer B) |  | 5.6 µM
47 | 0.57 µM | O=S(=O)(Nc1ncns1)c1cc(F)c(OC2OCCNC2c2cccc(C(F)(F)F)c2)cc1F (single isomer, unassigned; isomer B) |  | 4.8 µM
48 | 0.81 µM | COc1ccc(C2NCCOC2Oc2cc(F)c(S(=O)(=O)Nc3ncns3)cc2F)cc1 (single isomer, unassigned; isomer A) |  | > 30 µM
49 | 0.43 µM | CC(C)[C@H]1COC(Oc2cc(F)c(S(=O)(=O)Nc3ncns3)cc2F)C(c2cc(Cl)cc(Cl)c2)N1 (single isomer, unassigned; isomer A) |  | 
50 | 0.39 µM | O=S(=O)(Nc1ncns1)c1cc(F)c(OC2OCCNC2c2ccc(C(F)(F)F)cc2)cc1F (single isomer, unassigned; isomer A) |  | > 30 µM
51 | 0.2 µM | COc1ccccc1C1NCCOC1Oc1cc(F)c(S(=O)(=O)Nc2ncns2)cc1F (single isomer, unassigned; isomer A) |  | > 30 µM
